Earlier results on 1 compound are cited in patent US7759361B2, “Azabicyclooctan-3-one derivatives and use thereof” (Aprea AB, priority 2004, dated 2010).

The test system of the data set is cells carrying mutant p53. As to conditions: disclosed in WO 02/24692.

With `O=C1C2CCN(CC2)C1(CO)CO` [PRIMA-1, 2,2-bis(hydroxymethyl)-1-azabicyclo[2.2.2]octan-3-one], the induction of apoptosis result was “able to induce apoptosis”.
